Laboratory results taken from ChEMBL document CHEMBL5550218, “Structural Insights into Protein-Inhibitor Interactions in Human Tryptophan Dioxygenase” (J Med Chem, 2024).

Target: Tryptophan 2,3-dioxygenase (Homo sapiens, UniProt P48775)
Sequence (P48775 whole entry): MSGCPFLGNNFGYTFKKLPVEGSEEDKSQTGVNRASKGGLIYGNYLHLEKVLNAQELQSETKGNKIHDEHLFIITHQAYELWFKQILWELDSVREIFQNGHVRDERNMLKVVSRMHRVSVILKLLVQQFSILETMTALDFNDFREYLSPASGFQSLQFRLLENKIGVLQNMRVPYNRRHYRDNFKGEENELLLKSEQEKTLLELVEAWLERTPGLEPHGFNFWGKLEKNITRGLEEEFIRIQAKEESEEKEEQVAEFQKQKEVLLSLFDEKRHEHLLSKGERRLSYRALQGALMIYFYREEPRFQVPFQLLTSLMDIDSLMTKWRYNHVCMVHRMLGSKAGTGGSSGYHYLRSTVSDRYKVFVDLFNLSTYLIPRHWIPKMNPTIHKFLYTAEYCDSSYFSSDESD

## O=C1CC(c2c[nH]c3ccc(F)cc23)C(=O)N1 (stereo unspecified) [PF-06840003]
  IC50: 424 µM
